# Reference: patent US20110293658A1, “USE OF INKT OR TLR AGONISTS FOR PROTECTING AGAINST OR TREATING A DISEASE SUCH AS ACUTE INFECTION OR CANCER” (LUDWIG INSTITUTE FOR CANCER RESEARCH LTD., priority 2008, published 2011)
# “And” between values parts separate entries of the source, which are not always exact repeats. Equal entries are not always repeated.
# Assays:
# BM derived MDSC [1] = experiment: OT-I proliferation assay with BM derived MDSC; type: cell-based, mouse; details: MDSC pulsed with α-GalCer in the presence of BM resident iNKT cells from WT mice
# IL-12p40 = IL-12p40 production by MDSC (ELISA); type: cell-based, mouse; details: MDSC pulsed with 100 ng α-GalCer in the presence of iNKT cells
# [2] = system: EG7 cells (EL4 tumor cell line transfected with ovalbumin cDNA); design: species or system C57 BL/6 mice; details: mouse, in vivo, iv
# CD11bCD15 positive cells = experiment: Melan-A priming experiments with CD11bCD15 positive cells from melanoma patients; type: cell-based, human; details: CD11bCD15 positive cells pulsed with alphaGalCer 100 ng or Threitolceramide 200 ng
# Procedure: CD11bCD15 positive cells were pulsed with either alphaGalCer (100 ng) or Threitolceramide (200 ng) for 2 hours and then incubated with autologous iNKT cells overnight before adding autologous DC pulsed with Melan-A26-35 peptide and autologous CD11bCD15 cell depleted total leukocytes.
# Experiments in FIG. 29 were carried out using the same conditions as shown in the right column of FIG. 28 (i.e. in the presence of iNKT cells and alphaGalCer pulsed CD11bCD15 positive cells) in the presence of either blocking anti CD1d (middle column) or blocking anti CD40 (right column) antibodies.
# In order to assess whether secretion of IL-10 is contributing to the suppressive activity of CD11bCD15 positive cells, expansion of Melan-A26-35 specific T cell responses as assessed in the presence or absence of blocking anti 11-10 receptor antibodies. In the left hand panel of FIG. 31, expansion of Melan-A26-35 specific T cells was assessed using total leukocytes from which CD11b-CD15+ cells were removed (2.33%). Addition of CD11bCD15 positive cells reduced the frequency of Melan-A26-35 specific T cells (0.83%) (central panel).
# Purification of CD11b/CD15+ cells. Since CD15 CD11b positive cells have granulocyte density, it is important to purify them without using density gradients, such as Ficol. Red blood cells are lysed from whole blood, using red lysis cell buffer and anti CD11b/CD15 specific antibodies are added to the leukocytes for FACS guided cell sorting.
# Melan-A priming experiments. DCs were generated by culturing monocytes for 4 days in RPMI/10% FCS supplemented with 50 ng/ml GM-CSF (Pepro-tech) and 1,000 U/ml IL-4 (Salio, M., et al. 2007. Proc. Natl. Acad. Sci. U.S.A. 104:20490-20495). […] After 2 weeks, cells were stained with HLA-A2 tetramers loaded with melan-A26-35 peptide and anti CD8.
# Harnessing iNKT cells. The protocol to purify Cdl lbCd15 cells and differentiate DC is similar to the protocol described earlier. Cdl lbCd15 cells were pulsed with either alphaGalCer (100 ng) or with threitolceramide (200 ng) and then incubated with iNKT cells for 12 hours. Cells were then washed pulsed with the melan-A26-35 peptide and incubated with total leukocytes. After 2 weeks in culture, cells were stained with HLA-A2 melan-A tetramers and anti-CD8 antibodies.
# human MDSC = experiment: iNKT cell dependent killing of α-GalCer pulsed human MDSC (Propidium Iodide); type: cell-based; details: α-GalCer 100 ng/ml, MDSC:iNKT cell ratio of 1:0.25, 24 h
# Procedure: (B) Conditions to prevent lysis of α-GalCer pulsed human MDSC by iNKT cells. Human MDSC (0.5×10^6) were treated with α-GalCer (100 ng/ml) and co-cultured with increasing numbers of iNKT cells for 24 h. MDSC were stained with Propidium Iodide to calculate the percentage of iNKT cell dependent MDSC killing.
# [3] = system: CD11b+ cells from IAV infected individuals; type: cell-based, human; details: α-GalCer 100 ng/ml in presence of iNKT cells at MDSC:iNKT ratio 1:0.25, or ARG1 and NOS2 inhibitors; DC:CD11b+ 1:1
# ARG1 = ARG1 activity of α-GalCer pulsed MDSC (urea release); type: cell-based, mouse; details: MDSC pulsed with 100 ng α-GalCer in the presence of iNKT cells
# Procedure: (§1) (A) Loss of ARG1 and NOS2 activity in α-GalCer pulsed MDSC incubated with BM derived iNKT cells. MDSC were treated with α-GalCer in the presence of iNKT cells and collected at different time points. ARG1 and NOS2 activities were measured using a colorimetric assay to evaluate urea and nitrate/nitrite release, respectively (De Santo et al. 2005. Proc Natl Acad Sci USA 102:4185-4190. Serafini et al. 2006. J Exp Med 203:2691-2702). An ELISA was used to evaluate IL-12p40 production. Values are shown as a percentage of time point 0. The maximum amount of urea released by untreated MDSC (1×10^6) was 91.7 μg. The maximum amount of […] measured in the supernatant of untreated MDSC was 120 μM. The maximum amount of IL-12p40 was 200 ng/ml.
# (§2) Measuring activity of MDSC enzymes. ARG1 and NOS2 activities of α-GalCer pulsed BM-derived MDSC co-cultured with BM derived iNKT cells were assessed at different time points. NOS2 activity was measured from supernatants by Griess reaction, as the amount of NO3- and NO2-produced using a nitrate/nitrite assay kit (Cayman Chemicals) (Proc Natl Acad Sci USA 102:4185-4190). ARG1 activity was measured in cell lysates, as previously described (Proc Natl Acad Sci USA 102:4185-4190).
# BM derived MDSC [4] = experiment: Phenotypic analysis of treated MDSC (FACS); type: cell-based, mouse
# iNKT cells = experiment: IFN-γ release from iNKT cells incubated with α-GalCer pulsed CD11b+ cells; type: cell-based, human; details: α-GalCer pulsed CD11b+ cells from IAV infected patients, 24 h
# Procedure: (C) iNKT cells are activated by α-GalCer pulsed CD11b^+ cells from IAV infected patients. IFN-γ release from iNKT cells incubated for 24 h with α-GalCer pulsed CD11b^+ cells, derived from the IAV infected patients and healthy controls described in FIG. 7. Data represent the average of 3 replicates ±S.D.
# BM derived MDSC [5] = experiment: iNKT cell dependent lysis of α-GalCer pulsed MDSC; type: cell-based, mouse; details: MDSC pulsed with 100 ng of α-GalCer
# Procedure: CFSE labelled BM derived MDSC were either pulsed or not pulsed with α-GalCer and incubated with CD11c and Gr-1 depleted BM cultures, which contain iNKT cells.
# IL-23 and IL-12p70 = IL-23 and IL-12p70 secretion by α-GalCer pulsed MDSC; type: cell-based, mouse; details: MDSC pulsed with α-GalCer in the presence of iNKT cells; data not shown
# NOS2 = NOS2 activity of α-GalCer pulsed MDSC (nitrate/nitrite release); type: cell-based, mouse; details: MDSC pulsed with 100 ng α-GalCer in the presence of iNKT cells
# Procedure: as §1, §2
compound,measurement,setting,value
"CCCCCCCCCCCCCCCCCCCCCCCCCC(=O)N[C@@H](CO[C@H]1O[C@H](CO)[C@H](O)[C@H](O)[C@H]1O)[C@H](O)[C@H](O)CCCCCCCCCCCCCC [α-GalCer, α-Galactosylceramide]",MDSC suppression of CFSE labelled OT-I proliferation,BM derived MDSC [1],completely relieved
same,secretion of IL-12 p40,IL-12p40,enhanced secretion
same,frequency of MDSCs (CD11b+Gr1+ positive cells),[2],lower frequency
same,frequency of Ova specific T cell responses (H-2Kb tetramer staining),[2],higher frequency
same,tumor size / tumor regression,[2],Tumour regression
same,frequency of Melan-A26-35 specific T cells,"CD11bCD15 positive cells; in the absence of added iNKT cells, unpulsed 0.34%",0.32%
same,frequency of Melan-A26-35 specific T cells,CD11bCD15 positive cells; with addition of autologous iNKT cells,3.05% and 6.42%
same,iNKT cell dependent MDSC lysis,human MDSC,did not cause iNKT cell dependent MDSC lysis
same,suppressive activity of CD11b+ cells collected from IAV infected individuals (MLR proliferation),[3],could be reduced
same,ARG1 activity,ARG1,reduction
same,differentiation of CD11c- MDSC (CD11c expression),"BM derived MDSC [4]; CFSE labelled α-GalCer pulsed MDSC incubated with iNKT cells, 48 h",differentiation into CD11c^+ cells
same,CD86 and MHC class II expression,"BM derived MDSC [4]; α-GalCer pulsed MDSC incubated with iNKT cells, data not shown",up-regulation
same,activation of iNKT cells (IFN-γ release),iNKT cells,activated
same,lysis of pulsed MDSC by iNKT cells,BM derived MDSC [5],not lysed
same,secretion of IL-23 and IL-12p70,IL-23 and IL-12p70,No secretion
same,NOS2 activity,NOS2,reduction
